The text below walks through data of US20170202792A1, “METHOD FOR TREATING TAU-ASSOCIATED DISEASES” (NATIONAL TAIWAN NORMAL UNIVERSITY, priority 2016, published 2017).

In this assay the test system is SH-SY5Y tauRD-DsRed cells. As to the kind of experiment: Neurite outgrowth in SH-SY5Y tauRD-DsRed cells (TUBB3 staining). It is filed as cell-based, human. Conditions: 10 μM, pre-treated 8 hours, doxycycline 7 days; untreated = 100%. Here is the method:
We used SH-SY5Y human cells expressing a DsRed-tagged proaggregation mutant (ΔK280) of the C-terminal repeat domain of tau (tauRD-Gln^244-Glu^372 of the longest tau^441 isoform). The recombinant tauRD-DsRed construct was under the control of a tetracycline-regulated, hybrid human cytomegalovirus (CMV)/TetO2 promoter that can be induced by adding doxycycline. The cell lines were grown in medium containing blasticidin (5 μg/mL) and hygromycin (100 μg/mL).
SH-SY5Y tauRD-DsRed cells were seeded in 6-well plates (1×10^5/well) in a medium containing all-trans retinoic acid (10 μM, Sigma). After 48 hours of incubation, cells were pre-treated with 10 μM Congo red and 10 μM compound (I) for 8 hours; after which, tauRD-DsRed expression was induced with 1μg/mL doxycycline for 7 days. The cells were then fixed in 4% paraformaldehyde, permeabilized with 0.1% Triton X-100, blocked in 3% BSA, and then stained with the primary antibody anti-TUBB3 (against neuronal Class III β-tubulin) (1:1000; Covance) and with a secondary anti-rabbit Alexa Fluor® 555 antibody (1:500; Molecular Probes). Nuclei were counterstained with 4′,6-diamidino-2-phenylindole (DAPI). The total outgrowth in the untreated, Congo red-treated, and compound (I)-treated cells was assessed using MetaXpress image acquisition and analysis software.

`Nc1c(/N=N/c2ccc(-c3ccc(/N=N/c4cc(S(=O)(=O)O)c5ccccc5c4N)cc3)cc2)cc(S(=O)(=O)O)c2ccccc12` [Congo red, reference compound]: the “neurite growth relative to untreated cells” value was 110%.
